{"source": "patent US9687477B2", "about": "(priority 2011, dated 2017)", "key": {"influenza virus [1]": {"system": "influenza virus", "assay": "Survival and weight loss of influenza virus-infected mice treated with SK inhibitor", "type": "in vivo, C57BL/6 mice", "experimental": "FIG. 8 (Panels A-B) set forth data illustrating reduced mortality of influenza virus-infected mice by SK inhibitor treatment. (A) Wild-type C57BL/6 mice (n=5/group) were infected in vivo with influenza virus at 10^5 plaque forming unit (PFU) intra-nasally (i.n.) and injected with vehicle (control, CTR) or DMS {0.1 mg/kg (mpk)} and their lifespan was monitored. (B) Mice were infected with 5×10^4 PFU of influenza virus and then treated with vehicle (control, CTR), DMS (0.003 mpk) or SKI-II (0.012 mpk) via intranasal inoculation. Survival of the infected mice was monitored daily for 14 days.\nRefer to FIGS. 8A and 8B. Wild-type C57BL/6 mice (n=5/group) were infected in vivo with influenza virus at 10^5 PFU intra-nasally (i.n.) and injected with vehicle (CTR) or DMS {0.1 mg/kg (mpk)} and their lifespan was monitored."}, "[2]": {"system": "Influenza A/WSN/33 virus (H1N1)", "assay": "microbe, parasite or virus in culture", "type": "cell-based", "conditions": "read-out: EC50 (50% efficacy concentration that blocks virus production)"}, "RanBP3": {"system": "RanBP3", "assay": "Influenza virus-induced phosphorylation of RanBP3 in MDCK cells (Western blot)", "type": "cell-based, canine", "conditions": "5 MOI, 5 μM", "experimental": "FIG. 11 (Panels A-E) set forth data illustrating critical role of RanBP3 in influenza virus replication and RanBP3 regulation by SK inhibitor. (A-B) MDCK cells were infected with influenza virus at 5 MOI and treated with VEH or DMS (5 μM). Cell lysates were obtained at the indicated time points and the expression of pRanBP3 was assessed by Western blot analysis. Relative expression of pRanBP3 is shown in panel B. (C-E) HEK293 cells were transfected with control siRNA (siCTR) or siRNA targeting RanBP3 (siRanBP3). Western blotting was performed to detect RanBP3 and pRanBP3 (C). Cells were transfected with siRNA and then infected with influenza virus at 0.001 MOI. Virus titers were determined by using a plaque assay (D). Cells were transfected with siRNA and then infected with influenza virus at 1 MOI for 12 hrs. Immunocytochemistry followed by confocal microscopic analysis was performed to detect influenza viral NP (E).\n(§1) Specific antibodies against actin, influenza viral protein NP, NS1, NS2, M1, M2, Bax, Bcl-2, PARP, STAT1, pSTAT1, STAT2, pSTAT2, ERK, pERK, p38, p-p38, Akt, pAkt, JNK, pJNK, RanBP3, pRanBP3, p-p90RSK, and FLAG for SPL and SK1 were purchased from Cell Signaling Technology, Abcam, Upstate, or Santa Cruz Biotechnology. […] Membrane-bound antibodies were detected by enhanced chemiluminescence (Pierce). […]"}, "ERK signaling pathway": {"system": "ERK signaling pathway", "assay": "Influenza virus-induced activation of ERK MAP kinase signal in MDCK cells (Western blot)", "type": "cell-based, canine", "conditions": "3 MOI, 5 μM", "experimental": "FIG. 12 (Panels A-C) set forth data illustrating reduced activation of ERK MAP kinase signal by SK inhibitor treatment upon influenza virus infection. (A). MDCK cells were treated with VEH or DMS (5 μM) and infected with influenza virus at 3 MOI. Cell lysates were obtained at the indicated time points and the expression of ERK MAP kinase signaling components were assessed by Western blot analysis. Relative expression of pERK and p90RSK is shown in panels B and C respectively (dotted line, VEH treated; solid line, DMS treated).\n(§2) Specific antibodies against actin, influenza viral protein NP, NS1, NS2, M1, M2, Bax, Bcl-2, PARP, STAT1, pSTAT1, STAT2, pSTAT2, ERK, pERK, p38, p-p38, Akt, pAkt, JNK, pJNK, RanBP3, pRanBP3, p-p90RSK, and FLAG for SPL and SK1 were purchased from Cell Signaling Technology, Abcam, Upstate, or Santa Cruz Biotechnology. Total proteins were extracted by a RIPA buffer supplemented with inhibitors blocking proteases and phosphatases, and then normalized by using a Bradford assay. The protein samples (20 μg each) were run on a 12% SDS-PAGE gel and transferred to a PROTRAN-NC (Whatman). Membrane-bound antibodies were detected by enhanced chemiluminescence (Pierce). All of the presented data were repeated with independent experimental settings, at least twice."}, "influenza virus [3]": {"system": "influenza virus", "assay": "Viral NP in influenza virus-infected HEK-cells treated with sphingolipids (Western blot)", "type": "cell-based, Influenza A/WSN/33 virus (H1N1)", "conditions": "1 MOI, 1 μM, 2 dpi", "experimental": "FIG. 6 (Panels A-D) set forth data illustrating the enhanced susceptibility of SK1-cells to influenza virus infection. (A) HEK-cells (open triangle) or SK1-cells (filled square) were infected with influenza virus at 0.1 MOI. At 12, 18 or 48 hpi, virus titers were determined by plaque assay. n=3 separate virus-infected cells per group at each time point; Mean±SEM. (B) Western blot analysis was conducted at 2 dpi to detect viral NP and actin. (C) Cell lysates were used for Western blot analysis to detect STAT1, pSTAT1 and actin. (D) HEK-cells were infected with influenza virus at 1 MOI and treated with solvent controls, FTY720 (1 μM), D-erythro-sphingosine (1 μM) or S1P (1 μM). At 2 dpi, total proteins were extracted to detect viral NP and actin by Western blot analysis.\nas §2\nFTY720, D-erythro-sphingosine, and S1P were purchased from Cayman Chemicals. HEK-cells were infected with influenza virus and simultaneously treated with FTY720 (1 μM), D-erythro-sphingosine (1 μM), or its solvent (1% DMSO). Similarly, virus-infected cells were treated with S1P (1 μM) or its solvent (3 mM NaOH). These experiments were repeated two more times, with similar results."}, "influenza virus [4]": {"system": "influenza virus", "conditions": "cited from earlier work"}, "[5]": {"system": "Measles virus (Edmonston strain)", "type": "cell-based"}, "influenza virus [6]": {"system": "influenza virus", "assay": "JAK inhibitor / STAT1 inhibitor assay: viral NP in infected HEK- and SPL-cells", "type": "cell-based, Influenza A/WSN/33 virus (H1N1)", "conditions": "1 MOI, treated at 2 hpi, 10 μM, after 2 days", "text": "FIG. 4 (Panels A-E) set forth data illustrating the analyses for the activation of JAK/STAT following influenza virus infection of SPL-cells. HEK-cells or SPL-cells were uninfected or infected with influenza virus at 1 MOI. (A) At 1 dpi, cell lysates were used for Western blot analysis to detect STAT1, pSTAT1, STAT2, pSTAT2 and actin. (B) At 0, 12 or 18 hpi, whole proteins were extracted and then used for Western blot analysis to detect STAT1, pSTAT1 and actin. (C) HEK- or SPL-cells were pre-treated with fludarabine (1 μM) blocking STAT1 expression, and at 2 dpi, the expression of viral NP and actin was analyzed. (D) HEK-cells (filled bars) and SPL-cells (open bars) were uninfected (CTR) or infected with influenza virus at 1 MOI (left panel) or 10 MOI (right panel). Reverse transcription followed by quantitative real-time PCR was performed to detect the relative mRNA level of IFN-β. […] After 2 days, the level of viral NP and actin was assessed by Western blot analysis.\nas §1"}}, "note": "Like-named read-outs stand apart in the source and are kept apart here.", "data": [{"compound": "CCCCCCCCCCCCC/C=C/[C@@H](O)[C@H](CO)N(C)C", "note": "[DMS, D-erythro-N,N-dimethylsphingosine]", "values": [{"measurement": "weight lost by treated infected mice", "setting": "influenza virus [1]; 10^5 PFU i.n., single dose 0.1 mpk, at 9-10 dpi", "value": "~20", "unit": "%"}, {"measurement": "mortality rate of the infected mice", "setting": "influenza virus [1]; mouse, in vivo, 0.012 mg/kg", "value": "decreased the mortality rate of the infected mice"}, {"measurement": "protection from influenza virus-induced death (lifespan)", "setting": "influenza virus [1]; mouse, in vivo, 0.1 mg/kg", "value": "effectively protected them from influenza virus-induced death"}, {"measurement": "weight loss of the infected mice (morbidity experiment)", "setting": "influenza virus [1]; n=5/group, −15% in CTR", "value": "−7", "unit": "%"}, {"measurement": "EC50", "setting": "[2]", "value": 4.1, "unit": "µM"}, {"measurement": "influenza virus-induced phosphorylation of RanBP3", "setting": "RanBP3", "value": "blocked influenza virus-induced phosphorylation of RanBP3"}, {"measurement": "influenza virus-induced activation (phosphorylation) of ERK", "setting": "ERK signaling pathway", "value": "suppress influenza virus-induced activation"}, {"measurement": "influenza virus-induced activation (phosphorylation) of p90RSK", "setting": "ERK signaling pathway", "value": "suppress influenza virus-induced activation"}]}, {"compound": "CCCCCCCCCCCCC/C=C/[C@@H](O)[C@@H](N)COP(=O)(O)O", "note": "[S1P, sphingosine-1-phosphate]", "values": [{"measurement": "synthesis of influenza viral NP", "setting": "influenza virus [3]", "value": "failed to enhance the synthesis of influenza viral NP"}]}, {"compound": "CCCCCCCCCCCCC/C=C/[C@@H](O)[C@@H](N)CO", "note": "[D-erythro-sphingosine]", "values": [{"measurement": "synthesis of influenza viral NP", "setting": "influenza virus [3]", "value": "failed to enhance the synthesis of influenza viral NP"}]}, {"compound": "CCCCCCCOc1ccc(CC[C@@](C)(N)CO)cc1", "note": "[AAL-R]", "values": [{"measurement": "propagation of influenza virus", "setting": "influenza virus [4]; reference 18", "value": "did not significantly alter the propagation of influenza virus"}, {"measurement": "influenza virus-induced immune pathology", "setting": "influenza virus [4]; references 17, 18", "value": "alleviate influenza virus-induced immune pathology"}]}, {"compound": "Oc1ccc(Nc2nc(-c3ccc(Cl)cc3)cs2)cc1", "note": "[SKI-II, 4-[4-(4-Chloro-phenyl)-thiazol-2-ylamino]-phenol]", "values": [{"measurement": "viability of mice infected with influenza virus", "setting": "influenza virus [1]; single dose 0.012 mpk, 5×10^4 PFU, intranasal, 14 days", "value": "increased viability of mice infected with influenza virus"}, {"measurement": "EC50", "setting": "[2]; Influenza A virus, MDCK", "value": 2.5, "unit": "µM"}, {"measurement": "expression of measles viral proteins", "setting": "[5]", "value": "inhibited"}, {"measurement": "production of measles virus (viral titers, plaque assay)", "setting": "[5]", "value": "interfered with the production of measles virus"}]}, {"compound": "CCCCCCCCc1ccc(CCC(N)(CO)CO)cc1", "note": "[FTY720]", "values": [{"measurement": "synthesis of influenza viral NP", "setting": "influenza virus [3]", "value": "failed to enhance the synthesis of influenza viral NP"}]}, {"compound": "JAK inhibitor I", "values": [{"measurement": "NP expression in HEK-cells", "setting": "influenza virus [6]; HEK-cells", "value": "only a little increase of NP expression"}, {"measurement": "expression level of viral NP in SPL-cells", "setting": "influenza virus [6]; SPL-cells", "value": "strongly elevated the expression level of viral NP"}]}]}
